Patent US20030224023A1, “Cosmetic compositions with hydroxy amine salts of malonic acid” (Unilever Home & Personal Care USA, Division of Conopco, Inc., priority 2002, published 2003)

Text: This formula contains 8% Glycolic acid or 0.1053 equivalents, neutralized with 2.4% ammonia hydroxide which is 0.0395 equivalents, resulting in a final formula pH of 3.8. The DMAE formula contains 2.58% malonic acid or 0.0496 equivalents, neutralized with 3.20% DMAE which is 0.0358 equivalents, resulting in a final formula pH of 5.5. […] The clinical involved (49) panelists over a six week period. Panelists were required to apply each product to one half of their face. After application, the panelists were required to answer a series of questions regarding relative effectiveness of the products.
The effect of pH was evaluated with another set of panelists numbering (58) persons utilizing a formulation at pH 6.5. In this set, 2.05% or 0.0394 equivalents of Malonic acid was neutralized with 3.17% or 0.0356 equivalents of DMAE resulting in a formula with a pH of 6.5. In this formula the malonic acid was 90.35% neutralized with the DMAE. In both DMAE formulas the lower pKa malonic acid group was totally neutralized, depending on the amount of malonic acid present in each formula. The second higher pKa acid group was partially neutralized with the remaining DMAE equivalents to bring the pH up to the desired value.

Question: Which “improving the general condition of skin” value (compared with ammonium glycolate) does the source give for `CN(C)CCO.O=C(O)CC(=O)O` [DMAE malonate, dimethylaminoethanol (DMAE) malonate] here?
Answer: as effective as ammonium glycolate

Question: And the irritation (compared with the ammonium glycolate composition)?
Answer: considerably less irritating than the ammonium glycolate composition
